{
  "source": "patent US12258594B2",
  "about": "“Cas proteins with reduced immunogenicity and methods of screening thereof” (THE BROAD INSTITUTE, INC., priority 2018, dated 2025)",
  "origin": "cited, not measured here",
  "key": {"Factor VII": {"system": "Factor VII", "details": "LNP siRNA systems containing the lipid; hepatocytes in vivo"}, "target DNA": {"system": "target DNA", "details": "AsCpf1 mutants"}, "target sites with PAM": {"system": "target sites with PAM", "details": "for PAM of target sites that can be cleaved: AsCpf1 and variants; for activities at the altered PAMs: in vitro and in human cells"}, "dystrophin gene exon 51": {"system": "dystrophin gene exon 51", "details": "across 48 weeks"}},
  "data": [
    {"molecule": "1,2-dilinoleyloxy-keto-N,N-dimethyl-3-aminopropane [DLinKDMA]", "values": [
      {"measurement": "gene silencing potencies, series (rank order)", "setting": "Factor VII", "value": "DLinKC2-DMA>DLinKDMA>DLinDMA>>DLinDAP"}
    ]},
    {"molecule": "51228A: mutant of Ser1228 of AsCpf1", "values": [
      {"measurement": "DNA cleavage activity", "setting": "target DNA", "value": "comparable to that of wild-type AsCpf1"}
    ]},
    {"molecule": "CCCCC/C=C\\C/C=C\\CCCCCCCC(=O)OCC(CN(C)C)OC(=O)CCCCCCC/C=C\\C/C=C\\CCCCC", "note": "(stereo not shown) [DLinDAP, 1,2-dilineoyl-3-dimethylammonium-propane]", "values": [
      {"measurement": "gene silencing potencies, series (rank order)", "setting": "Factor VII", "value": "DLinKC2-DMA>DLinKDMA>DLinDMA>>DLinDAP"}
    ]},
    {"molecule": "CCCCC/C=C\\C/C=C\\CCCCCCCCOCC(CN(C)C)OCCCCCCCC/C=C\\C/C=C\\CCCCC", "note": "(stereo not shown) [DLinDMA, 1,2-dilinoleyloxy-3-N,N-dimethylaminopropane]", "values": [
      {"measurement": "gene silencing potencies, series (rank order)", "setting": "Factor VII", "value": "DLinKC2-DMA>DLinKDMA>DLinDMA>>DLinDAP"}
    ]},
    {"molecule": "CCCCC/C=C\\C/C=C\\CCCCCCCCC1(CCCCCCCC/C=C\\C/C=C\\CCCCC)OCC(CCN(C)C)O1", "note": "(stereo not shown) [DLinKC2-DMA, 1,2-dilinoleyl-4-(2-dimethylaminoethyl)-[1,3]-dioxolane]", "values": [
      {"measurement": "gene silencing potencies, series (rank order)", "setting": "Factor VII", "value": "DLinKC2-DMA>DLinKDMA>DLinDMA>>DLinDAP"}
    ]},
    {"molecule": "AsCpf1: Acidaminococcus sp. BV3L6 Cpf1", "values": [
      {"measurement": "PAM of target sites that can be cleaved", "setting": "target sites with PAM", "value": "TTTV"}
    ]},
    {"molecule": "D908A: D908A mutant of AsCpf1", "values": [
      {"measurement": "DNA cleavage activity", "setting": "target DNA", "value": "almost no activity"}
    ]},
    {"molecule": "D1235A: D1235A mutant of AsCpf1", "values": [
      {"measurement": "DNA cleavage activity", "setting": "target DNA", "value": "reduced activity"}
    ]},
    {"molecule": "D1263A: D1263A mutant of AsCpf1", "values": [
      {"measurement": "DNA cleavage activity", "setting": "target DNA", "value": "significantly reduced activity"}
    ]},
    {"molecule": "E993A: E993A mutant of AsCpf1", "values": [
      {"measurement": "DNA cleavage activity", "setting": "target DNA", "value": "almost no activity"}
    ]},
    {"molecule": "G783P: G783P mutant of AsCpf1", "values": [
      {"measurement": "DNA cleavage activity", "setting": "target DNA", "value": "reduced activities"}
    ]},
    {"molecule": "K548A: K548A mutant of AsCpf1", "values": [
      {"measurement": "DNA cleavage activity", "setting": "target DNA", "value": "reduced activities"}
    ]},
    {"molecule": "K607A: K607A mutant of AsCpf1", "values": [
      {"measurement": "DNA cleavage activity", "setting": "target DNA", "value": "almost no activity"}
    ]},
    {"molecule": "M604A: M604A mutant of AsCpf1", "values": [
      {"measurement": "DNA cleavage activity", "setting": "target DNA", "value": "reduced activities"}
    ]},
    {"molecule": "R176A: R176A mutant of AsCpf1", "values": [
      {"measurement": "DNA cleavage activity", "setting": "target DNA", "value": "reduced activities"}
    ]},
    {"molecule": "R192A: R192A mutant of AsCpf1", "values": [
      {"measurement": "DNA cleavage activity", "setting": "target DNA", "value": "reduced activities"}
    ]},
    {"molecule": "R951A: R951A mutant of AsCpf1", "values": [
      {"measurement": "DNA cleavage activity", "setting": "target DNA", "value": "reduced activities"}
    ]},
    {"molecule": "R1226A: R1226A mutant of AsCpf1", "values": [
      {"measurement": "DNA cleavage activity", "setting": "target DNA", "value": "almost no activity"},
      {"measurement": "DNA strand cleaved", "setting": "target DNA; target and non-target strand", "value": "acts as a nickase that cleaves the non-target DNA strand, but not the target strand"}
    ]},
    {"molecule": "S542R/K548V/N552R: AsCpf1 variant with the mutations S542R/K548V/N552R", "values": [
      {"measurement": "PAM of target sites that can be cleaved", "setting": "target sites with PAM", "value": "TATV"},
      {"measurement": "activities at the altered PAMs", "setting": "target sites with PAM", "value": "enhanced activities"}
    ]},
    {"molecule": "S542R/K607R: AsCpf1 variant with the mutations S542R/K607R", "values": [
      {"measurement": "PAM of target sites that can be cleaved", "setting": "target sites with PAM", "value": "TYCV/CCCC"},
      {"measurement": "activities at the altered PAMs", "setting": "target sites with PAM", "value": "enhanced activities"}
    ]},
    {"molecule": "W382A: W382A mutant of AsCpf1", "values": [
      {"measurement": "DNA cleavage activity", "setting": "target DNA", "value": "reduced activity"}
    ]},
    {"molecule": "eteplirsen", "values": [
      {"measurement": "average dystrophin positive fibers compared to baseline", "setting": "dystrophin gene exon 51", "value": 47, "unit": "%"}
    ]}
  ]
}
